In general, DC50 refers to the concentration at which degradation of the target reaches its halfway point. As a reminder, the Dmax is the greatest extent of degradation seen.

A value given as a limit tells only on which side of the number the result lay.

This note sets out measurements from patent US20230265116A1, “DEGRADATION OF (EGFR) BY CONJUGATION OF EGFR INHIBITORS WITH E3 LIGASE LIGAND AND METHODS OF USE” (BEIGENE, LTD., priority 2020, published 2023).

Holding throughout (format): cell-based
Assay [1] relates to EGFR Del19/C797S (H1975-clone #23). Kind of assay: EGFR degradation HTRF assay, H1975-clone #23 DC cells. Conditions: 16h treatment; for H1975 #23 DC Dmax (%): maximum percentage of degradation; for DC50: H1975 #23 DC, read-out: H1975 #23 DC DC50. On the procedure: H1975-clone #28(Del19/T790M/C797S) and H1975-clone #23(Del19/C797S). EGFR-Del19/T790M/C797S and EGFR-Del19/C797S were stably expressed in H1975 cell lines by lentivirus-mediated over-expression, respectively. The EGFR over-expressed cells then underwent gene knockout, in which the EGFR targeting sgRNA was designed to only target the endogenous EGFR copies and preserve the exogenous EGFR copies. Followed by the gene knockout, the edited H1975 cells were seeded in 96 well plates at the concentration of 1 cell/well, cultured for about 2 weeks to allow single clones formation. The formed clones were screened by DNA sequencing and whole exon sequencing analysis for the desired edition. H1975-clone #28 and H1975-clone #23 were finally confirmed as homozygous Del19/T790M/C797S EGFR and Del19/C797S EGFR clones, respectively.
BaF3 WT(wild type), BaF3-LTC(L858R/T790M/C797S) and BaF3-DTC(Del19/T790M/C797S) cells are treated with compounds diluted in 0.2% DMSO cell culture medium and incubate for 16h, 37° C., 5% CO2, H1975-#36, H1975-#28, H1975-#23 and HCC827 cells are treated with compounds diluted in 0.2% DMSO cell culture medium on day 2, incubate for 16h, 37° C., 5% CO2.the final concentriation of compounds in all assay is start with 10 uM, 5-fold dilution, total 8 doses were included.
After 16h treatment, add HTRF lysis buffer to each well; seal the plate and incubate 1 hour at room temperature on a plate shaker; Once the cells are lysed, 16 μL of cell lysate are transferred to a PE 384-well HTRF detection plate; 4 μL of pre-mixed HTRF antibodies are added to each well; Cover the plate with a plate sealer, spin 1000 rpm for 1 min, Incubate overnight at room temperature; Read on BMG PheraStar with HTRF protocol (337 nm-665 nm-620 nm).
The inhibition (degradation) percentage of the compound was calculated by the following equation: Inhibition percentage of Compound=100-100×(Signal-low control)/(High control-low control), wherein signal=each test compound group
High control=Cell group with added DMSO and without compound, indicating microplate readings without EGFR degradation;
Dmax is the maximum percentage of inhibition (degradation).
The IC50 (DC50) value of a compound can be obtained by fitting the following equation
Y=Bottom+(TOP−Bottom)/(1+((IC50/X)^hillslope))
Wherein, X and Y are known values, and IC50, Hillslope, Top and Bottom are the parameters obtained by fitting with software. Y is the inhibition percentage (calculated from the equation), X is the concentration of the compound; IC50 is the concentration of the compound when the 50% inhibition is reached. The smaller the IC50 value is, the stronger the inhibitory ability of the compound is. Vice versa, the higher the IC50 value is, the weaker the inhibitory ability of the compound is; Hillslope represents the slope of the fitted curve, generally around 1*; Bottom represents the minimum value of the curve obtained by data fitting, which is generally 0%±20%; Top represents the maximum value of the curve obtained by data fitting, which is generally 100%±20%. The experimental data were fitted by calculating and analyzing with Dotmatics data analysis software.
(TR-FRET usually uses a lanthanide donor and a delayed reading to cut background.)

The target of assay [2] is T1, EGFR L858R/C797S (BaF3 LC cells) (Homo sapiens, UniProt P00533, C797S/L858R).
T1 construct: expressed in transfected cells; host or cells: BaF3
As to the kind of experiment: EGFR degradation HTRF assay, BaF3 LC cells. The note with it: BaF3 LC, 16h treatment; for DC50: read-out: BaF3 LC DC50.

The test system of assay [3] is EGFR Del19/T790M/C797S (H1975-clone #28). As to the kind of experiment: EGFR degradation HTRF assay, H1975-clone #28 DTC cells. Conditions: H1975 # 28 DTC cells. In outline: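 Engineered H1975 lines (lentiviral mutant EGFR, endogenous EGFR knocked out, single-clone verified); 16h compound, 37° C., 5% CO2, 0.2% DMSO; 8-point 5-fold series from 10 uM final. HTRF lysate read; % degradation vs DMSO, four-parameter fit → DC50, Dmax.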

The test system of assay [4] is EGFR Del19/T790M/C797S (BaF3-DTC cells). As to the kind of experiment: EGFR degradation HTRF assay, BaF3-DTC cells. Conditions: 16h treatment; for DTC Dmax (%): maximum percentage of degradation; for DC50: read-out: DTC DC50. Summed up: (§1)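 EGFR remaining after a 16 h, 37 °C exposure (8 doses, 5-fold steps from 10 uM final, 0.2% DMSO) was quantified by HTRF antibodies in cell lysate. Percent inhibition relative to DMSO control was fitted by four-parameter logistic to give DC50; Dmax denotes maximal degradation.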

Assay [5] has as its target T2, EGFR L858R/T790M/C797S (BaF3-LTC cells) (Homo sapiens, UniProt P00533, C797S/L858R/T790M).
T2 construct: expressed in transfected cells; host or cells: BaF3
As to the kind of experiment: EGFR degradation HTRF assay, BaF3-LTC cells. Conditions: BaF3-LTC, 16h treatment; for Dmax: maximum percentage of degradation, read-out: LTC Dmax (%); for DC50: read-out: LTC DC50. In outline:
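Cells treated 16 h at 37 °C, 5% CO2 in medium with 0.2% DMSO; top final concentration 10 uM, 5-fold dilution, 8 doses. Lysates read by HTRF (665/620 nm); degradation % versus DMSO high control, DC50 from four-parameter fit, Dmax as maximal degradation.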

For assay [6], the target named is T3, EGFR L858R/T790M (H1975-clone #36, homozygous) (Homo sapiens, UniProt P00533, L858R/T790M).
T3 construct: designed to specifically target WT EGFR but preserve the L858R/T790M copy; host or cells: H1975-clone #36
Kind of assay: EGFR degradation HTRF assay, H1975-clone #36 cells. The note with it: H1975 #36, 16h treatment; for Dmax: NCI-H1975, maximum percentage of degradation. Summed up: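 H1975 clone #36, made homozygous for L858R/T790M EGFR by knockout of the WT allele, treated 16 h at 37 °C with compound in 0.2% DMSO medium. Eight doses from 10 uM, 5-fold dilutions. EGFR measured by HTRF in lysates. DC50 and Dmax fitted against DMSO controls.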

For a further assay, the target named is T4, EGFR (HCC827 cells) (Homo sapiens, UniProt P00533, DEL746-750).
T4 construct: endogenous in cells; host or cells: HCC827
As to the kind of experiment: EGFR degradation HTRF assay, HCC827 cells. The note with it: HCC827, 16h treatment; for Dmax: maximum percentage of degradation. Summed up: as §1

T4 sequence (P00533 with tags, fused parts or gaps DEL746-750): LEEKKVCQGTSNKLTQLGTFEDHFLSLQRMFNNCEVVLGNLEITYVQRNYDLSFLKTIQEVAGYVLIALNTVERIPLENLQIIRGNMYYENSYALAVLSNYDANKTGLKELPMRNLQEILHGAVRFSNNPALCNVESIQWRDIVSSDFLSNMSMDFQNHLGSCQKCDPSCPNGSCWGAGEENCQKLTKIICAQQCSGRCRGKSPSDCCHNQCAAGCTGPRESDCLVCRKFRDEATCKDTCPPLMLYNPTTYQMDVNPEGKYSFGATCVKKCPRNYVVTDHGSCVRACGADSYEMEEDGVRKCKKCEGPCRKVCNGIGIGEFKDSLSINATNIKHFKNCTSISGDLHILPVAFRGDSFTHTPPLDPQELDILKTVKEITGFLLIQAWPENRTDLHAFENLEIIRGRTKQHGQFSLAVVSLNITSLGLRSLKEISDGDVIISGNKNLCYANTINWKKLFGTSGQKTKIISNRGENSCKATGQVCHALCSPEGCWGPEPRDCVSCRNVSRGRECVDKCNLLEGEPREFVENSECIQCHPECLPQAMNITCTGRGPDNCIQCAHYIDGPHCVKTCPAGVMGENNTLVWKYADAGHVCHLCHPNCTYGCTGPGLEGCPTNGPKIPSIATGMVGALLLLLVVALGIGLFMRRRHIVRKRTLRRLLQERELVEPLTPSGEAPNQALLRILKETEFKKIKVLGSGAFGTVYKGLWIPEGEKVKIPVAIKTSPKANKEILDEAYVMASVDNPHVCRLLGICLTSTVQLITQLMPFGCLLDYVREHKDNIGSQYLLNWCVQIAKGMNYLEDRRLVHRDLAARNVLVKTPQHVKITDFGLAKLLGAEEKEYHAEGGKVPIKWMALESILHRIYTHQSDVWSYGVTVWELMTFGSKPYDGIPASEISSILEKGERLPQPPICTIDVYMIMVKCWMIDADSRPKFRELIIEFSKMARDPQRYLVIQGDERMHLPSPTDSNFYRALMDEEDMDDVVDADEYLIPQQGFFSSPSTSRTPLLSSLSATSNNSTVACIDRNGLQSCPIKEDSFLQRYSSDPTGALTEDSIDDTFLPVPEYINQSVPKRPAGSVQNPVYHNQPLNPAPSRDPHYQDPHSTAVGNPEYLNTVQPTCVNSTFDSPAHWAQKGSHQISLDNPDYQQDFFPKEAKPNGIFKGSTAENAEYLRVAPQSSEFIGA
T2 sequence (P00533 25-1210 T790M/C797S/L858R): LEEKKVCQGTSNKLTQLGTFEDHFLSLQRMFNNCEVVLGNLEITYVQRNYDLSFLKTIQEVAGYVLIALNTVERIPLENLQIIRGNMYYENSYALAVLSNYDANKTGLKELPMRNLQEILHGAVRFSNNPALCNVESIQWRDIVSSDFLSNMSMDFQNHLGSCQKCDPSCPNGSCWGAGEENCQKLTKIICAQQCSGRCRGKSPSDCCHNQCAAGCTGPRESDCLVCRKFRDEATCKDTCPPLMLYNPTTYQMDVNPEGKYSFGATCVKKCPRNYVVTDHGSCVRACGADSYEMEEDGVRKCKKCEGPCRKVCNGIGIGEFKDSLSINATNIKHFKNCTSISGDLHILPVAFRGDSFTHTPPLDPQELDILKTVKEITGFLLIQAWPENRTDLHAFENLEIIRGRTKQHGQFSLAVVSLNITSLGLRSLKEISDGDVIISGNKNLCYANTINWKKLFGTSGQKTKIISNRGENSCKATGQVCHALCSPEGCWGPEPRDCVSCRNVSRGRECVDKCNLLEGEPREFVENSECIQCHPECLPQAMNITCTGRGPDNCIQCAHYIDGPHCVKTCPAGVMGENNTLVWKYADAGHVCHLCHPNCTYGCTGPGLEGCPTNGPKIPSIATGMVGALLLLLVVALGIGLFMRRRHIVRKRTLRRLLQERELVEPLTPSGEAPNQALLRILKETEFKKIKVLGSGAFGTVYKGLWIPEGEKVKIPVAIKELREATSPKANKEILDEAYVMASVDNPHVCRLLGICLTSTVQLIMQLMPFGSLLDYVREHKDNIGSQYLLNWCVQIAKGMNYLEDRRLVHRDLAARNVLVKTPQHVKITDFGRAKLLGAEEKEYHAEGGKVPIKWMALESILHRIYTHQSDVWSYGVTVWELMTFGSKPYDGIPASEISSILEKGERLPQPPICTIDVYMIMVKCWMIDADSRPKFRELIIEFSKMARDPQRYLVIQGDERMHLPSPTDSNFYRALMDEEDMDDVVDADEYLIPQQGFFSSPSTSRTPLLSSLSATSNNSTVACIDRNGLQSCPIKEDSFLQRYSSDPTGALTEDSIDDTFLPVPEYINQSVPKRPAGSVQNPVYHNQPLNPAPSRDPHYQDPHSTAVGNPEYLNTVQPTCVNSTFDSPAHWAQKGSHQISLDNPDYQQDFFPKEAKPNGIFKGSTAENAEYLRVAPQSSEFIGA
T1 sequence (P00533 25-1210 C797S/L858R): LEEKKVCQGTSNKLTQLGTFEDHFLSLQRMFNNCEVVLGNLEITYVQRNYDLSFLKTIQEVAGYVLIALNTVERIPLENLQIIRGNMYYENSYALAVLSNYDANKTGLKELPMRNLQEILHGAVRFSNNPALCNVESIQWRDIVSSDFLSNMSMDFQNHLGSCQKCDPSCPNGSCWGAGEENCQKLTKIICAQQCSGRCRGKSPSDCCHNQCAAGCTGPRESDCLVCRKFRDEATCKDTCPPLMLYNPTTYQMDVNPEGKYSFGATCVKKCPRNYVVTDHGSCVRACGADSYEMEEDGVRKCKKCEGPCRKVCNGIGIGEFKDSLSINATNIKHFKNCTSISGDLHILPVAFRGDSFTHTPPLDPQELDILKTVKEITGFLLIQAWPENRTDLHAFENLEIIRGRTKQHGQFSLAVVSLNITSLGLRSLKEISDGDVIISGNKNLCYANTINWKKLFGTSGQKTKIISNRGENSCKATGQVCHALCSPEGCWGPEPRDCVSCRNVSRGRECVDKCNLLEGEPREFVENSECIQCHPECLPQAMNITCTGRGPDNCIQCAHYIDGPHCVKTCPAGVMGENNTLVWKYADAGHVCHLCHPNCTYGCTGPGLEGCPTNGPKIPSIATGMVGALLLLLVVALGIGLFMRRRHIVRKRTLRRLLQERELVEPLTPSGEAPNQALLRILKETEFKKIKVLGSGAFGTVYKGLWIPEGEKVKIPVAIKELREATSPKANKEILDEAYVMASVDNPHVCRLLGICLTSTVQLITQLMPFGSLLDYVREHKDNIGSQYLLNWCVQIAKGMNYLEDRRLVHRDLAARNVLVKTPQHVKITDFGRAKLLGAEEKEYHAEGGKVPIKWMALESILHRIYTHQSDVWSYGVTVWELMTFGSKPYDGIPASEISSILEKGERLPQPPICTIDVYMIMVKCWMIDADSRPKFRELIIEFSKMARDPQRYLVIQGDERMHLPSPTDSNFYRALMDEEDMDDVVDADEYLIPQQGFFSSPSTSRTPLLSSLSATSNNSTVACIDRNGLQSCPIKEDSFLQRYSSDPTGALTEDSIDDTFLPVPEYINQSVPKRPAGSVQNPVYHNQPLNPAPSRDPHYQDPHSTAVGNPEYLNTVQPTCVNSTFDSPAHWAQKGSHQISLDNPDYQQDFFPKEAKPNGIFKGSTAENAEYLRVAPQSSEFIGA
T3 sequence (P00533 25-1210 T790M/L858R): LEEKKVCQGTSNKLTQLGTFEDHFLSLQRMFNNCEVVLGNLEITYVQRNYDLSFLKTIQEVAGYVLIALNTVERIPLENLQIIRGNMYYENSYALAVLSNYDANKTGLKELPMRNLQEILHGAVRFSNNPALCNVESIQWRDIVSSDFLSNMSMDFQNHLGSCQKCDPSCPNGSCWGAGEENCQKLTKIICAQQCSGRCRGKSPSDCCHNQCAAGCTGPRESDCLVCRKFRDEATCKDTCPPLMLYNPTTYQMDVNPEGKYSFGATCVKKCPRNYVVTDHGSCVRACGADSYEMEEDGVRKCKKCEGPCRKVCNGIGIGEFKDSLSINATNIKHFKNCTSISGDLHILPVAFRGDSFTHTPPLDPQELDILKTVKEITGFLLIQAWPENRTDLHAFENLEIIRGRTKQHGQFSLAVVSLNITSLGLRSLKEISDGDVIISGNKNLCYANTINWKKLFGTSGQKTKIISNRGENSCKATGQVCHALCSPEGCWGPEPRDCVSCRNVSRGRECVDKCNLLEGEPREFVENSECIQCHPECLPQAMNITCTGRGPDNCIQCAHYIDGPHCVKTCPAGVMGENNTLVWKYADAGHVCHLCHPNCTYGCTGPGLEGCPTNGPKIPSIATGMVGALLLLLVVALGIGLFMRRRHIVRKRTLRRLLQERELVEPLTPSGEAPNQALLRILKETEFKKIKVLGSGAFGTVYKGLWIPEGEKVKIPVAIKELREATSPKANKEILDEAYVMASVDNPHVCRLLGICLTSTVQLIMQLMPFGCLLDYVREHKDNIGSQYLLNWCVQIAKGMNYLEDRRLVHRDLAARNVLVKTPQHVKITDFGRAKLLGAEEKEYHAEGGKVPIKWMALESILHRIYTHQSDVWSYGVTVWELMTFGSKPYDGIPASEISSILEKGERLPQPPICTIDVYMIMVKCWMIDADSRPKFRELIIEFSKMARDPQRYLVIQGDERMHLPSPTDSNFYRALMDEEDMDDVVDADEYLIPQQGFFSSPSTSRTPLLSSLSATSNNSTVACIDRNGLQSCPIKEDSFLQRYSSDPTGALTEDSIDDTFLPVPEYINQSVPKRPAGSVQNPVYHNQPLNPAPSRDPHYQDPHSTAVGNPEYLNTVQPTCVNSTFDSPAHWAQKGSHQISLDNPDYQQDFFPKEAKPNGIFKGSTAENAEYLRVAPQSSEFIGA

For the compound `CCc1ccc2c(P(C)(C)=O)c(Nc3nc(Nc4cc(CC)c(N5CCC(N6CCN(CCc7cccc8c7n(C)c(=O)n8C7CCC(=O)NC7=O)CC6)CC5)cc4OC)ncc3Br)ccc2n1` (stereo not shown) [Example 516, 3-(4-(2-(4-(1-(4-((5-bromo-4-((5-(dimethylphosphoryl)-2-ethylquinolin-6-yl)amino)pyrimidin-2-yl)amino)-2-ethyl-5-methoxyphenyl)piperidin-4-yl)piperazin-1-yl)ethyl)-3-methyl-2-oxo-2,3-dihydro-1H-benzo[d]imidazol-1-yl)piperidine-2,6-dione], in assay [1], the “H1975 #23 DC Dmax (%)” value is 78.66% and the 50% degradation concentration (DC50) is 1.11 nM. The greatest degradation seen (Dmax) in assay [2] (maximum percentage of degradation, read-out: BaF3 LC Dmax (%)) was determined as 94.8%. The DC50 in assay [2] is 1.83 nM.
As to `CCc1ccc2c(P(C)(C)=O)c(Nc3nc(Nc4cc(CC)c(N5CCC(N6CCN(CCc7cc(F)c([C@H]8CCC(=O)NC8=O)c(F)c7)CC6)CC5)cc4OC)ncc3Br)ccc2n1` [Example 484, (R)-3-(4-(2-(4-(1-(4-((5-bromo-4-((5-(dimethylphosphoryl)-2-ethylquinolin-6-yl)amino)pyrimidin-2-yl)amino)-2-ethyl-5-methoxyphenyl)piperidin-4-yl)piperazin-1-yl)ethyl)-2,6-difluorophenyl)piperidine-2,6-dione], the 50% degradation concentration (DC50) in assay [3] (EGFR degradation, IC50 (DC50) from curve fit, read-out: DC50(nM) H1975 # 28 DTC) stood at 0.781 nM; in assay [1] it was 3.54 nM; in assay [2] it was 11.9 nM. Moreover, in assay [3] (maximum percentage of inhibition (degradation)), the “Dmax (%) H1975 # 28 DTC” value was 89.6%. In assay [1], the “H1975 #23 DC Dmax (%)” value is given as 82.99%.
Turning to `CCc1cc(Nc2ncc(Br)c(Nc3ccc4c(=O)n(C)ncc4c3P(C)(C)=O)n2)c(OC)cc1N1CCC(N2CCN(CCC3CCN(c4cc(F)c(C5CCC(=O)NC5=O)c(F)c4)CC3)CC2)CC1` (stereo not shown) [Example 270, 3-(4-(4-(2-(4-(1-(4-((5-bromo-4-((5-(dimethylphosphoryl)-2-methyl-1-oxo-1,2-dihydrophthalazin-6-yl)amino)pyrimidin-2-yl)amino)-2-ethyl-5-methoxyphenyl)piperidin-4-yl)piperazin-1-yl)ethyl)piperidin-1-yl)-2,6-difluorophenyl)piperidine-2,6-dione], the “DTC Dmax (%)” value in assay [4] came out at 91.36%. Moreover, the half-maximal degradation concentration (DC50) stood at 6.97 nM in assay [4], 24 nM in assay [5], 17.1 nM in assay [6] and 5.43 nM at EGFR (HCC827 cells). The Dmax came to 84.2% in assay [5], 84.6% in assay [6] and 89% on EGFR (HCC827 cells).
As to `CCc1cc(Nc2ncc(Br)c(Nc3ccc4nccnc4c3P(C)(C)=O)n2)c(OC)cc1N1CCC(N2CCN(C(=O)C3CCN(c4ccc5c(c4)C(C)(C)C(=O)N5C4CCC(=O)NC4=O)CC3)CC2)CC1` (stereo not shown) [Example 219, 3-(5-(4-(4-(1-(4-((5-bromo-4-((5-(dimethylphosphoryl)quinoxalin-6-yl)amino)pyrimidin-2-yl)amino)-2-ethyl-5-methoxyphenyl)piperidin-4-yl)piperazine-1-carbonyl)piperidin-1-yl)-3,3-dimethyl-2-oxoindolin-1-yl)piperidine-2,6-dione], in assay [4], the “DTC Dmax (%)” value came to 93%. Also, the DC50 in assay [4] came out at 1.94 nM; in assay [5] it was 4.8 nM; in assay [6], 0.65 nM; at EGFR (HCC827 cells), 3.21 nM. Also, the results for the Dmax (in assay [5]; in assay [6]; on EGFR (HCC827 cells)) were 87.5%, 69.6% and 65.9%, respectively.
`CCc1cc(Nc2ncc(Br)c(Nc3ccc4nccnc4c3P(C)(C)=O)n2)c(OC)cc1N1CCC(N2CCN(CCc3ccc(C4CCC(=O)NC4=O)c(F)c3F)CC2)CC1` (stereo not shown) [Example 10, 3-(4-(2-(4-(1-(4-((5-bromo-4-((5-(dimethylphosphoryl)quinoxalin-6-yl)amino)pyrimidin-2-yl)amino)-2-ethyl-5-methoxyphenyl)piperidin-4-yl)piperazin-1-yl)ethyl)-2,3-difluorophenyl)piperidine-2,6-dione]: in assay [4], the “DTC Dmax (%)” value amounted to 85.51%. In addition, the DC50 in assay [4] turned out to be 15.4 nM; in assay [5], 83.3 nM; in assay [6], 15.9 nM; at EGFR (HCC827 cells) it was 12.3 nM. Moreover, the figures for the Dmax (in assay [5]; in assay [6]; on EGFR (HCC827 cells)) were 88.7%, 82.6% and 83.3%, respectively.
With `CCc1cc(Nc2ncc(Br)c(Nc3ccc4nccnc4c3P(C)(C)=O)n2)c(OC)cc1N1CCC(N2CCN(C(=O)[C@H]3C[C@H](N(C)c4ccc(C5CCC(=O)NC5=O)cc4)C3)CC2)CC1` (stereo partly shown) [Example 247, 3-(4-(((1r,3r)-3-(4-(1-(4-((5-bromo-4-((5-(dimethylphosphoryl)quinoxalin-6-yl)amino)pyrimidin-2-yl)amino)-2-ethyl-5-methoxyphenyl)piperidin-4-yl)piperazine-1-carbonyl)cyclobutyl)(methyl)amino)phenyl)piperidine-2,6-dione], in assay [4], the “DTC Dmax (%)” value came to 86.93%. In addition, the 50% degradation concentration (DC50) in assay [4] was 6.37 nM; in assay [5], 18.6 nM; in assay [6], 5.1 nM; at EGFR (HCC827 cells) it was 4.59 nM. Besides, the Dmax in assay [5] amounted to 83.1%; in assay [6], 72.8%; at EGFR (HCC827 cells), 67%.
Turning to `CCc1cc(Nc2ncc(Br)c(Nc3ccc4nccnc4c3P(C)(C)=O)n2)c(OC)cc1N1CCC(N2CCN(C3CC(c4ccc5c(c4)C(C)(C)C(=O)N5C4CCC(=O)NC4=O)C3)CC2)CC1` (stereo not shown) [Example 317, 3-(5-(3-(4-(1-(4-((5-bromo-4-((5-(dimethylphosphoryl)quinoxalin-6-yl)amino)pyrimidin-2-yl)amino)-2-ethyl-5-methoxyphenyl)piperidin-4-yl)piperazin-1-yl)cyclobutyl)-3,3-dimethyl-2-oxoindolin-1-yl)piperidine-2,6-dione], the “DTC Dmax (%)” value in assay [4] was 90.74%. For the same compound, the DC50 in assay [4] was 5.17 nM; in assay [5], 9.47 nM; in assay [6] it was more than 80 nM; at EGFR (HCC827 cells), 0.779 nM. In addition, the Dmax is 94.1% in assay [5], 47% in assay [6] and 51.6% at EGFR (HCC827 cells).
